{
  "source": "patent US9877929B2",
  "about": "“Topical vitamin D and ubiquinol oral supplement compositions” (Premier Dental Products Company, priority 2011, dated 2018)",
  "origin": "cited, not measured here",
  "key": {"[1]": {"settings": "stable UBIQUINOL supplement"}},
  "data": [
    {"compound": "COc1c(O)c(C)c(C/C=C(\\C)CC/C=C(\\C)CC/C=C(\\C)CC/C=C(\\C)CC/C=C(\\C)CC/C=C(\\C)CC/C=C(\\C)CC/C=C(\\C)CC/C=C(\\C)CCC=C(C)C)c(O)c1OC", "note": "[UBIQUINOL]", "values": [
      {"measurement": "water solubility", "setting": "[1]", "result": "less than 0.1 mg/ml"},
      {"measurement": "time required to reach peak concentration", "setting": "absorption from the gastrointestinal tract", "result": "approximately 6 hours"},
      {"measurement": "time to steady-state concentrations", "setting": "oral treatment", "result": "two"},
      {"measurement": "peak blood values", "setting": "orally, 150 mg per day of UBIQUINOL in a softgel, within 28 days", "result": 3.84, "unit": "µg/mL"}
    ]}
  ]
}
